{"source": "patent US12486260B2", "about": "“Indazolyl-isoxazole derivatives for the treatment of diseases such as cancer” (Merck Patent GmbH, priority 2019, dated 2025)", "key": {"c-Kit(V654A)": {"target": "T1, c-Kit(V654A) (Homo sapiens, UniProt P10721, V654A)", "T1 construct": "amino acids 544-end; GST (N)", "T1 sequence (P10721 544-976 V654A)": "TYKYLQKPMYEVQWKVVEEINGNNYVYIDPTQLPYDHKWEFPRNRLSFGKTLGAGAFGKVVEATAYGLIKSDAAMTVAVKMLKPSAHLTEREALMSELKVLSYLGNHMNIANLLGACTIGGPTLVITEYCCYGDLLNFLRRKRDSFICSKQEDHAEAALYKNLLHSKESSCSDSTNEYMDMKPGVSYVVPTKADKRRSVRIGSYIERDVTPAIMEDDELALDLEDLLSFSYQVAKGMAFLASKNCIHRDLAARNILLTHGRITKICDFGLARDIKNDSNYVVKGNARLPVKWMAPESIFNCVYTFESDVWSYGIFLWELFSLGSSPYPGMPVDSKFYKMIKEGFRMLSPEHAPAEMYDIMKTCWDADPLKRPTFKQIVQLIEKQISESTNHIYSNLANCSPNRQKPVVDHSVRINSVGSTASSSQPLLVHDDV", "assay": "c-Kit(V654A) kinase assay (33P-ATP filter binding)", "type": "biochemical", "conditions": "Table 2, isoxazole vs corresponding triazole derivatives; 200 μM ATP, 40 minutes; read-out: Inhibition (IC50) of c-Kit (V654A)", "experimental": "• HPLC/MS: Agilent 1200/6100 • eluent A: water+0.05% formic acid • eluent B: acetonitrile+0.04% formic acid • column: Chromolith HR RP-18e; 50-4.6 mm • flow rate: 3.3 ml/min • gradient: 0%→100% B: 0.0→2.0 min 100% B: 2.0→2.5 min • UV detection: 220 nm • MS detection: 65-800 amu positive HPLC/MS Conditions B: • HPLC/MS: Agilent 1200/6100 • eluent A: water+0.05% formic acid • eluent B: acetonitrile+0.04% formic acid • column: Kinetex XB-C18; 2.6 μm; 50-4.6 mm • flow rate: 2.5 ml/min • gradient: 0%→100% B: 0.0→1.4 min 100% B: 1.4→2.0 min • UV detection: 220 nm • MS detection: 65-800 amu positive UPLC/MS Conditions: • UPLC/MS: Waters Acquity/SQD • eluent A: water+0.05% formic acid • eluent B: acetonitrile+0.04% formic acid • column: Kinetex XB-C18; 1.7 μm; 50-2.1 mm • flow rate: 0.9 ml/min • gradient: 2%→100% B: 0.0→1.0 min 100% B: 1.0→1.3 min • UV detection: 220 nm/254 nm/MaxPlot/TotalPlot • MS detection: 61-800 amu positive Assays c-Kit(V654A) Assay:\nc-Kit(V654A) (N-terminal GST-tagged, recombinant human c-Kit, amino acids 544-end containing the V654A mutation) is incubated with 8 mM MOPS pH 7.0, 0.2 mM EDTA, 250 μM GGMEDIYEFMGGKKK, 10 mM MgAcetate and [gamma-33P-ATP] (specific activity approx. 500 cpm/pmol, concentration 200 μM). The reaction is initiated by the addition of the MgATP mix. […]"}, "[1]": {"target": "T2, mutant cKIT (Δ560-576 and V654A) in GIST430/654 cell line (Homo sapiens, UniProt P10721, DEL560-576/V654A)", "T2 construct": "GIST430/654 cell line expressing mutated constitutively active cKIT receptor tyrosine kinase; endogenous in cells; host or cells: GIST430/654", "T2 sequence (P10721 with tags, fused parts or gaps DEL560-576/V654A)": "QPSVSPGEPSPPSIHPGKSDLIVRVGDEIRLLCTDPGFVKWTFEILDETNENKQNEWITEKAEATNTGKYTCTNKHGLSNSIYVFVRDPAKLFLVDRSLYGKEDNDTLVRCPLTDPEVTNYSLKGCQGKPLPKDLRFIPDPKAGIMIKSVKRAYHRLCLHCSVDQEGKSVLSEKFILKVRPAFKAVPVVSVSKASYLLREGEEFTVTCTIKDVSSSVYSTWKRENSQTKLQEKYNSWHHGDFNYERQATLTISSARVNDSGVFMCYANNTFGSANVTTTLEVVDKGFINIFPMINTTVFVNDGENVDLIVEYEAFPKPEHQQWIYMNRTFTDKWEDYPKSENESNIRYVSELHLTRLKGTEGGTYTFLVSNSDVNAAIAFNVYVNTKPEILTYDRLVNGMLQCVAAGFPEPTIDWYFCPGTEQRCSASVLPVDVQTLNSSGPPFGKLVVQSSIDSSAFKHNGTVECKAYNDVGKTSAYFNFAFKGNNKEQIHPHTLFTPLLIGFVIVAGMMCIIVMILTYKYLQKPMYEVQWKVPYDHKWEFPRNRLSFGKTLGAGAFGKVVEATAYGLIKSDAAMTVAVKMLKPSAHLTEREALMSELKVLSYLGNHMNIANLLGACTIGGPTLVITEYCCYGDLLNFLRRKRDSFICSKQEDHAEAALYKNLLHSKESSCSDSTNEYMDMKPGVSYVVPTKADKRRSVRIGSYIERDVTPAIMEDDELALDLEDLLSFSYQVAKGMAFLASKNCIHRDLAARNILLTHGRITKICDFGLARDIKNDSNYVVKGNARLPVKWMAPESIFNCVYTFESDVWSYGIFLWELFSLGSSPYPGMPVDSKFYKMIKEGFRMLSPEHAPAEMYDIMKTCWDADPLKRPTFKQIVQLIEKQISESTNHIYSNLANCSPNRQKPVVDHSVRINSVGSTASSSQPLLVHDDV", "assay": "cellular testing of cKIT mutant inhibitors: cKIT autophosphorylation in GIST430/654 cells (Luminex)", "type": "cell-based", "conditions": "Table 2, isoxazole vs corresponding triazole derivatives; phospho-Y307-cKIT, 45 min; read-out: Inhibition (IC50) of GIST 430/654", "experimental": "Assay Principle for Cellular Testing of cKIT Mutant Inhibitors\nThe GIST430/654 cell line expressing mutated constitutively active cKIT receptor tyrosine kinase (Δ560-576 and V654A) was employed for assessing cellular potency of compounds. Cellular activity of mutant cKIT was determined by the degree of cKIT autophosphorylation at tyrosine 307 using a Luminex-based bead assay. GIST430/654 cells were plated with 25,000 cells per well of a 96-well plate in 100 μl medium (85% IMDM/15% FCS supplemented with 100 nM Imatinib). At the following day compounds were added in a serial dilution for 45 min. Then, cells were lysed with 90 μl lysis buffer (20 mM Hepes pH 7.5, 200 mM NaCl, 1.5 mM MgCl2×6H2O, 0.4 mM EDTA, 1% Triton-X-100, 1% Phosphatase-Inhibitor II, 20 mM β-Glycerolphosphat, 0.1% Protease-Inhibitor Cocktail III, 0.01% Benzonase) und lysates were cleared by centrifugation through a 96-well filter plate (0.65 μm). Samples were incubated with Luminex-beads which were coupled with an anti-total cKIT antibody overnight at 4° C. under gentle agitation. […] The amount of phospho-Y307-cKIT was determined in a Luminex 200 instrument measuring 100 events per well within 60 seconds.\nCounts from samples treated with compounds were calculated as percent of control from solvent treated (0.3% DMSO) samples. Dose-response curves were fitted and IC50 values were determined using Genedata Screener software."}}}
{"smiles": "COCCOc1cc2[nH]nc(-c3cn(-c4ccc(C(=O)N5CC(N6CCOCC6)C5)cc4)nn3)c2cc1F", "values": [{"measurement": "IC50", "setting": "c-Kit(V654A)", "result": 0.0011, "unit": "µM"}, {"measurement": "IC50", "setting": "[1]", "result": 0.61, "unit": "µM"}]}
{"smiles": "COCCOc1cc2[nH]nc(-c3cn(-c4ccc(C(=O)N5CC[C@@H]5C(C)(C)O)cc4)nn3)c2cc1F", "values": [{"measurement": "IC50", "setting": "c-Kit(V654A)", "result": 0.0051, "unit": "µM"}, {"measurement": "IC50", "setting": "[1]", "result": 0.22, "unit": "µM"}]}
